Measurements from ChEMBL document CHEMBL1201862, “PubChem BioAssay data set” (2004).
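Following 48 hours of exposure in 96-well plates, responses at five concentrations were used to interpolate endpoints linearly. GI50 = concentration required for 50% inhibition of growth.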 Calls of active or inactive are those of the source. Rule as the data show it: active = GI50 up to about 1.1 µM and inactive = higher.

Tests used:
Experiment in all cases: NCI-60 cell line screen, 48 h
[1] = test system: RPMI-8226
[2] = test system: Malme-3M
[3] = test system: SNB-78
[4] = test system: IGROV-1
[5] = test system: UO-31
[6] = test system: M14
[7] = test system: NCI-H522
[8] = test system: HCT-116
[9] = test system: SW-620
[10] = test system: HCT-15
[11] = test system: MOLT-4
[12] = test system: TK-10
[13] = test system: CCRF-CEM
[14] = test system: A549
[15] = test system: SF-268
[16] = test system: SN12C
[17] = test system: HOP-18
[18] = test system: OVCAR-4
[19] = test system: KM12
[20] = test system: K562
[21] = test system: HCC 2998
[22] = test system: SR
[23] = test system: CAKI-1
[24] = test system: KM-20L2
[25] = test system: OVCAR-3
[26] = test system: UACC-62
[27] = test system: LXFL 529
[28] = test system: NCI-H226
[29] = test system: NCI-H460
[30] = test system: RXF 631
[31] = test system: SNB-75
[32] = test system: RXF 393
[33] = test system: COLO 205
[34] = test system: U-251
[35] = test system: UACC-257
[36] = test system: DLD-1
[37] = test system: SF-539
[38] = test system: HL-60
[39] = test system: 786-0
[40] = test system: A498
[41] = test system: HOP-62
[42] = test system: M19-MEL
[43] = test system: SK-MEL-2
[44] = test system: SK-OV-3
[45] = test system: ACHN
[46] = test system: DMS-273
[47] = test system: SNB-19
[48] = test system: SK-MEL-28
[49] = test system: SK-MEL-5
[50] = test system: XF498
[51] = test system: SF-295
[52] = test system: LOX IMVI
[53] = test system: DMS-114
[54] = test system: EKVX
[55] = test system: OVCAR-8
[56] = test system: HT-29
[57] = test system: HOP-92
[58] = test system: NCI-H23
[59] = test system: OVCAR-5

In the case of `C=CCC12CC(=O)C=C1CCC1(C2)OCCO1` (stereo unspecified), the GI50 [1] is reported as > 100 µM (inactive), the GI50 [2] is reported as > 100 µM (inactive) and the GI50 [3] is reported as > 100 µM (inactive). The GI50 [4] was > 100 µM (inactive), the GI50 [5] was > 100 µM (inactive) and the GI50 [6] was > 100 µM (inactive). For the same compound, the GI50 [7] was > 100 µM (inactive), the GI50 [8] was > 100 µM (inactive) and the GI50 [9] was > 100 µM (inactive). For the same compound, the GI50 [10] was greater than 100 µM, the GI50 [11] was > 100 µM (inactive) and the GI50 [12] was > 100 µM (inactive). The GI50 [13] was > 100 µM (inactive), the GI50 [14] was > 100 µM (inactive) and the GI50 [15] was > 100 µM (inactive). For the same compound, the GI50 [16] was > 100 µM (inactive), the GI50 [17] was > 100 µM (inactive) and the GI50 [18] was > 100 µM (inactive). For the same compound, the GI50 [19] was > 100 µM (inactive), the GI50 [20] was > 100 µM (inactive) and the GI50 [21] was > 100 µM (inactive). The GI50 [22] was > 100 µM (inactive), the GI50 [23] was > 100 µM (inactive) and the GI50 [24] was > 100 µM (inactive). For the same compound, the GI50 [25] was > 100 µM (inactive), the GI50 [26] was > 100 µM (inactive) and the GI50 [27] was > 100 µM (inactive). The GI50 [28] was > 100 µM (inactive), the GI50 [29] was > 100 µM (inactive) and the GI50 [30] was > 100 µM (inactive). For the same compound, the GI50 [31] was > 100 µM (inactive), the GI50 [32] was > 100 µM (inactive) and the GI50 [33] was > 100 µM (inactive). For the same compound, the GI50 [34] was > 100 µM (inactive), the GI50 [35] was > 100 µM (inactive) and the GI50 [36] was > 100 µM (inactive). The GI50 [37] was > 100 µM (inactive), the GI50 [38] was > 100 µM (inactive) and the GI50 [39] was > 100 µM (inactive). The GI50 [40] was > 100 µM (inactive), the GI50 [41] was > 100 µM (inactive) and the GI50 [42] was > 100 µM (inactive). The GI50 [43] was > 100 µM (inactive), the GI50 [44] was > 100 µM (inactive) and the GI50 [45] was > 100 µM (inactive). The GI50 [46] was > 100 µM (inactive), the GI50 [47] was > 100 µM (inactive) and the GI50 [48] was > 100 µM (inactive). The GI50 [49] was > 100 µM (inactive).

With `c1ccc2c(c1)[nH]c1c2nc2ccccn21` the GI50 [50] was > 100 µM (inactive), the GI50 [7] was > 100 µM (inactive) and the GI50 [51] was > 100 µM (inactive). The GI50 [16] was > 100 µM (inactive), the GI50 [20] was 74.3 µM (inactive) and the GI50 [21] was > 100 µM (inactive). The GI50 [22] was > 100 µM (inactive), the GI50 [23] was 67.9 µM (inactive) and the GI50 [28] was > 100 µM (inactive). For the same compound, the GI50 [30] was > 100 µM (inactive), the GI50 [32] was > 100 µM (inactive) and the GI50 [36] was 66.1 µM (inactive). The GI50 [37] was > 100 µM (inactive), the GI50 [39] was 81.3 µM (inactive) and the GI50 [40] was 85.5 µM (inactive). For the same compound, the GI50 [41] was > 100 µM (inactive), the GI50 [42] was > 100 µM (inactive) and the GI50 [43] was > 100 µM (inactive).

`Cn1nc(-c2ccccc2)c2c(/C=C/c3ccc(Cl)cc3)onc2c1=O` was tested, and the GI50 [1] was 31.8 µM (inactive), the GI50 [52] was 25.6 µM (inactive) and the GI50 [53] was > 100 µM (inactive). For the same compound, the GI50 [4] was 31.4 µM (inactive), the GI50 [5] was 16.3 µM (inactive) and the GI50 [50] was 10.5 µM (inactive). The GI50 [6] was > 100 µM (inactive), the GI50 [7] was 13.3 µM (inactive) and the GI50 [54] was > 100 µM (inactive). The GI50 [8] was 11.1 µM (inactive), the GI50 [9] was 28.7 µM (inactive) and the GI50 [10] was 26.3 µM. The GI50 [11] was > 100 µM (inactive), the GI50 [51] was 27.4 µM (inactive) and the GI50 [12] was 33 µM (inactive). For the same compound, the GI50 [13] was 27.7 µM (inactive), the GI50 [14] was 8.95 µM (inactive) and the GI50 [15] was > 100 µM (inactive). The GI50 [16] was 17.1 µM (inactive), the GI50 [55] was 16.7 µM (inactive) and the GI50 [17] was 9.84 µM (inactive). For the same compound, the GI50 [20] was 40.8 µM (inactive), the GI50 [23] was > 10 µM (inactive) and the GI50 [24] was 19.1 µM (inactive). The GI50 [26] was 35.8 µM (inactive), the GI50 [27] was 39.9 µM (inactive) and the GI50 [29] was > 100 µM (inactive). The GI50 [30] was > 100 µM (inactive), the GI50 [56] was 34.4 µM (inactive) and the GI50 [32] was 39.8 µM (inactive). The GI50 [33] was 30.8 µM (inactive), the GI50 [34] was 33.7 µM (inactive) and the GI50 [36] was 46 µM (inactive). The GI50 [37] was 22.6 µM (inactive), the GI50 [39] was 7.6 µM (inactive) and the GI50 [57] was 21.7 µM (inactive). For the same compound, the GI50 [42] was 89.9 µM (inactive), the GI50 [44] was > 10 µM (inactive) and the GI50 [45] was 8.57 µM (inactive). The GI50 [46] was > 100 µM (inactive), the GI50 [58] was > 100 µM (inactive) and the GI50 [47] was 41.5 µM (inactive). For the same compound, the GI50 [48] was 51.3 µM (inactive) and the GI50 [49] was > 100 µM (inactive).

In the case of `Cn1c(=O)c(C(=O)NC(=O)OCc2ccccc2)cn(CCSCCOC(=O)NCCCCCCNC(=O)OCCSCCn2cc(C(=O)NC(=O)OCc3ccccc3)c(=O)n(C)c2=O)c1=O`, the GI50 [1] is reported as > 100 µM (inactive), the GI50 [2] is reported as > 100 µM (inactive) and the GI50 [52] is reported as > 100 µM (inactive). The GI50 [53] was 78 µM (inactive), the GI50 [3] was > 100 µM (inactive) and the GI50 [4] was > 100 µM (inactive). The GI50 [5] was 74.6 µM (inactive), the GI50 [50] was 16.9 µM (inactive) and the GI50 [6] was > 100 µM (inactive). The GI50 [7] was > 100 µM (inactive), the GI50 [54] was > 100 µM (inactive) and the GI50 [8] was > 100 µM (inactive). The GI50 [9] was > 100 µM (inactive), the GI50 [10] was greater than 100 µM and the GI50 [11] was > 100 µM (inactive). For the same compound, the GI50 [12] was > 100 µM (inactive), the GI50 [13] was > 100 µM (inactive) and the GI50 [14] was > 100 µM (inactive). The GI50 [15] was 84.9 µM (inactive), the GI50 [16] was > 100 µM (inactive) and the GI50 [59] was > 100 µM (inactive). For the same compound, the GI50 [55] was > 100 µM (inactive), the GI50 [18] was > 100 µM (inactive) and the GI50 [20] was > 100 µM (inactive). The GI50 [21] was > 100 µM (inactive), the GI50 [24] was > 100 µM (inactive) and the GI50 [26] was > 100 µM (inactive). For the same compound, the GI50 [27] was > 100 µM (inactive), the GI50 [28] was > 100 µM (inactive) and the GI50 [29] was > 100 µM (inactive). The GI50 [30] was > 100 µM (inactive), the GI50 [31] was 17.8 µM (inactive) and the GI50 [32] was 33.7 µM (inactive). The GI50 [33] was > 100 µM (inactive), the GI50 [34] was 63.4 µM (inactive) and the GI50 [36] was > 100 µM (inactive). For the same compound, the GI50 [37] was 32.5 µM (inactive), the GI50 [38] was > 100 µM (inactive) and the GI50 [39] was 83.9 µM (inactive). The GI50 [40] was > 100 µM (inactive), the GI50 [57] was 23.2 µM (inactive) and the GI50 [41] was 36.7 µM (inactive). The GI50 [42] was > 100 µM (inactive), the GI50 [43] was > 100 µM (inactive) and the GI50 [45] was > 100 µM (inactive). For the same compound, the GI50 [46] was > 100 µM (inactive), the GI50 [58] was > 100 µM (inactive) and the GI50 [47] was 41.2 µM (inactive). The GI50 [48] was > 100 µM (inactive) and the GI50 [49] was > 100 µM (inactive).
